Results: patent publication US20250230165A1, “HETEROCYCLIC COMPOUNDS FOR USE IN THE TREATMENT OF CANCER” (ARTIOS PHARMA LIMITED, priority 2021, published 2025)

biological target: T1, Human Polθ polymerase domain (aa1820-2590) (Homo sapiens, UniProt O75417); test: Polθ Polymerase Domain Kinact/KI Assay (PicoGreen); format: biochemical; conditions: 0.8 nM Polθ, 100 nM DNA substrate, kobs vs [I] fit for 2-step covalent inhibitor
T1 construct: Human Polθ polymerase domain (aa1820-2590) was expressed in E. coli; made in house; host or cells: E. coli
T1 sequence (O75417 1820-2590): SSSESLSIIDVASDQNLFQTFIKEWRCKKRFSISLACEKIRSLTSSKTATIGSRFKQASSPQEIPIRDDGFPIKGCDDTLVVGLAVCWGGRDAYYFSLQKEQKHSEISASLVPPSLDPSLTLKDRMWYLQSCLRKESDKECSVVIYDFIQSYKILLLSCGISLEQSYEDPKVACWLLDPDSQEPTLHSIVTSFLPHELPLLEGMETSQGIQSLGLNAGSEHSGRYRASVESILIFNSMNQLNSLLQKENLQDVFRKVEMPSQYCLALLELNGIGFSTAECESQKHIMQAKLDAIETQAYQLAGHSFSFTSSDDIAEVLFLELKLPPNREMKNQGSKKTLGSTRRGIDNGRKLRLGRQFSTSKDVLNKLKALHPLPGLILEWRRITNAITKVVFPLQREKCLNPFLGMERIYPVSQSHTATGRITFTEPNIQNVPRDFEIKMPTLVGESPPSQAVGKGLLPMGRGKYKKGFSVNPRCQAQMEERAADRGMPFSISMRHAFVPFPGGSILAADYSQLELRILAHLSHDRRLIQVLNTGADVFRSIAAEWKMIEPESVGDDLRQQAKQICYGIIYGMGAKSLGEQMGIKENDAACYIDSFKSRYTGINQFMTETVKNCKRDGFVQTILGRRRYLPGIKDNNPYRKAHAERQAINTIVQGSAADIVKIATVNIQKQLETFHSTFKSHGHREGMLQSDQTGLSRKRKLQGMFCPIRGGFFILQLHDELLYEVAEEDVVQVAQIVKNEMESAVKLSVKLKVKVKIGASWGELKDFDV
Method in brief: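 Time-dependent inhibition was followed with 0.8 nM polymerase domain, 100 nM DNA substrate and […], reactions quenched over 60 min and quantified by PicoGreen. Kinact and KI came from a secondary plot of kobs against inhibitor concentration.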

Kinact/Kl [M⁻¹ s⁻¹]	SMILES
2e+06	C=CC(=O)N1Cc2nc(CN3C[C@H]4CC(=O)N(c5cc(C(F)(F)F)cc(C)n5)[C@@H]4C(=O)Nc4cccc(Cl)c43)cn2C[C@@H]1C (racemic) [Example 144b, (3aR,11aS)-5-(((S/R)-7-acryloyl-6-methyl-5,6,7,8-tetrahydroimidazo[1,2-a]pyrazin-2-yl)methyl)-6-chloro-1-(6-methyl-4-(trifluoromethyl)pyridin-2-yl)-1,3a,4,5,10,11a-hexahydro-2H-benzo[b]pyrrolo[2,3-f][1,4]diazocine-2,11(3H)-dione]
410000	Cc1cc(C(F)(F)F)cc(N2C(=O)C[C@@H]3CN(Cc4ccc([C@@H]5CCCN5C(=O)/C=C/CN(C)C)cc4)c4c(F)cccc4N(C)C(=O)[C@H]32)n1 (racemic) [Example 170b, (3aR,11aS)-5-(4-((S/R)-1-((E)-4-(dimethylamino)-but-2-enoyl)pyr-rolidin-2-yl)benz-yl)-6-fluoro-10-methyl-1-(6-methyl-4-(tri-fluoromethyl)-pyridin-2-yl)-1,3a,4,5,10,11a-hexahydro-2H-benzo[b]pyrrolo [2,3-f][1,4]diazo-cine-2,11(3H)-dione]
2.29e+06	C=C(CN(C)C)C(=O)N1CCC[C@@H]1c1ccc(CN2C[C@H]3CC(=O)N(c4cc(C(F)(F)F)cc(C)n4)[C@@H]3C(=O)N(C)c3cccc(F)c32)cc1 (racemic) [Example 171a, (3aR,11aS)-5-(4-((R/S)-1-(2-((di-methylamino)-methyl)acryloyl)-pyrrolidin-2-yl)-benzyl)-6-fluoro-10-methyl-1-(6-methyl-4-(tri-fluoromethyl)-pyridin-2-yl)-1,3a,4,5,10,11a-hexahydro-2H-benzo[b]pyrrolo [2,3-f][1,4]diazo-cine-2,11(3H)-dione]
1.62e+06	C=C(CN(C)C)C(=O)N1CCC[C@H]1c1ccc(CN2C[C@H]3CC(=O)N(c4cc(C(F)(F)F)cc(C)n4)[C@@H]3C(=O)N(C)c3cccc(F)c32)cc1 (racemic) [Example 171b, (3aR,11aS)-5-(4-((S/R)-1-(2-((di-methylamino)-methyl)acryloyl)-pyrrolidin-2-yl)-benzyl)-6-fluoro-10-methyl-1-(6-methyl-4-(tri-fluoromethyl)-pyridin-2-yl)-1,3a,4,5,10,11a-hexahydro-2H-benzo[b]pyrrolo [2,3-f][1,4]diazo-cine-2,11(3H)-dione]
900000	C#CC(=O)N1Cc2nc(CN3C[C@H]4CC(=O)N(c5cc(C(F)(F)F)cc(C)n5)[C@@H]4C(=O)N(C)c4cccc(Cl)c43)cn2C[C@@H]1C (racemic) [Example 172a, (3aR,11aS)-6-chloro-10-meth-yl-1-(6-methyl-4-(trifluorometh-yl)pyridin-2-yl)-5-(((S/R)-6-meth-yl-7-propioloyl-5,6,7,8-tetra-hydroimidazo [1,2-a]pyrazin-2-yl)methyl)-1,3a, 4,5,10,11a-hexa-hydro-2H-benzo [b]pyrrolo[2,3-f] [1,4]diazocine-2,11(3H)-dione]
280000	C#CC(=O)N1Cc2nc(CN3C[C@H]4CC(=O)N(c5cc(C(F)(F)F)cc(C)n5)[C@@H]4C(=O)N(C)c4cccc(Cl)c43)cn2C[C@H]1C (racemic) [Example 172b, (3aR,11aS)-6-chloro-10-meth-yl-1-(6-methyl-4-(trifluoro-methyl)pyridin-2-yl)-5-(((R/S)-6-methyl-7-propioloyl-5,6,7,8-tetra-hydroimidazo [1,2-a]pyrazin-2-yl)methyl)-1,3a,4,5,10,11a-hexahydro-2H-benzo[b]pyrrolo [2,3-f][1,4]diazo-cine-2,11(3H)-dione]
1.38e+06	C#CC(=O)N1Cc2nc(CN3C[C@H]4CC(=O)N(c5cc(C(F)(F)F)cc(C)n5)[C@@H]4C(=O)N(C)c4cccc(C)c43)cn2C[C@H]1C (racemic) [Example 199, (3aR,11aS)-6,10-dimethyl-1-(6-methyl-4-(tri-fluoromethyl)pyr-idin-2-yl)-5-(((R/S)-6-methyl-7-propioloyl-5,6,7,8-tetrahydro-imidazo[1,2-a]pyr-azin-2-yl)methyl)-1,3a,4,5,10,11a-hexahydro-2H-benzo[b]pyrrolo [2,3-f][1,4]diazo-cine-2,11(3H)-dione]
4.19e+06	C=CC(=O)N1Cc2nc(CN3C[C@H]4CC(=O)N(c5cc(C(F)(F)F)cc(C)n5)[C@@H]4C(=O)N(C)c4cccc(C)c43)cn2C[C@@H]1C (racemic) [Example 206b, (3aR,11aS)-5-(((S/R)-7-acryloyl-6-methyl-5,6,7,8-tetrahydroimidazo [1,2-a]pyrazin-2-yl)methyl)-6,10-dimethyl-1-(6-methyl-4-(trifluoromethyl)pyridin-2-yl)-1,3a,4,5,10,11a-hexahydro-2H-benzo[b]pyrrolo [2,3-f][1,4]diazocine-2,11(3H)-dione]
1.31e+06	C=CC(=O)N1CC(N2CCC[C@H](CN3C[C@H]4CC(=O)N(c5cc(C(F)(F)F)cc(C)n5)[C@@H]4C(=O)N(C)c4cccc(F)c43)C2)C1 (racemic) [Example 225b, (3aR,11aS)-5-(((S/R)-1-(1-acryloylazetidin-3-yl)piperidin-3-yl)methyl)-6-fluoro-10-methyl-1-(6-methyl-4-(trifluoromethyl)pyridin-2-yl)-1,3a,4,5,10,11a-hexahydro-2H-benzo[b] pyrrolo[2,3-f] [1,4]diazocine-2,11(3H)-dione]
860000	C=CC(=O)N1Cc2cc(CN3C[C@H]4CC(=O)N(c5cc(C(F)(F)F)cc(C)n5)[C@@H]4C(=O)N(C)c4cccc(Cl)c43)cnc2[C@H]1CO (racemic) [Example 231, (3aR,11aS)-5-(((S/R)-6-acryloyl-7-(hydroxymethyl)-6,7-dihydro-5H-pyrrolo[3,4-b]pyridin-3-yl)methyl)-6-chloro-10-methyl-1-(6-methyl-4-(trifluoromethyl)pyridin-2-yl)-1,3a,4,5,10,11a-hexahydro-2H-benzo[b]pyrrolo[2,3-f][1,4]diazocine-2,11(3H)-dione]
2.99e+06	C=CC(=O)N1Cc2cc(CN3C[C@H]4CC(=O)N(c5cc(C(F)(F)F)cc(C)n5)[C@@H]4C(=O)N(C)c4cccc(C)c43)cnc2[C@H]1CO (racemic) [Example 233, (3aR,11aS)-5-(((S/R)-6-acryloyl-7-(hydroxymethyl)-6,7-dihydro-5H-pyrrolo[3,4-b]pyridin-3-yl)methyl)-6,10-dimethyl-1-(6-methyl-4-(trifluoromethyl)pyridin-2-yl)-1,3a,4,5,10,11a-hexahydro-2H-benzo[b]pyrrolo[2,3-f][1,4]diazocine-2,11(3H)-dione]
5.85e+06	C=CC(=O)N1Cc2cc(CN3C[C@H]4CC(=O)N(c5cc(C(F)(F)F)cc(C)n5)[C@@H]4C(=O)N(C)c4cccc(C)c43)cnc2[C@H]1COC (racemic) [Example 234, (3aR,11aS)-5-(((S/R)-6-acryloyl-7-(methoxymethyl)-6,7-dihydro-5H-pyrrolo[3,4-b]pyridin-3-yl)methyl)-6,10-dimethyl-1-(6-methyl-4-(trifluoromethyl)pyridin-2-yl)-1,3a,4,5,10,11a-hexahydro-2H-benzo[b]pyrrolo[2,3-f][1,4]diazocine-2,11(3H)-dione]
930000	C=CC(=O)N1Cc2cc(CN3C[C@H]4CC(=O)N(c5cc(C(F)(F)F)cc(C)n5)[C@@H]4C(=O)N(C)c4cccc(Cl)c43)ccc2[C@@H]1CC#N (racemic) [Example 287a, 2-((S/R)-2-acryloyl-5-(((3aR,11aS)-6-chloro-10-methyl-1-(6-methyl-4-(trifluoromethyl)pyridin-2-yl)-2,11-dioxo-1,2,3,3a,4,10,11,11a-octahydro-5H-benzo[b]pyrrolo[2,3-f][1,4]diazocin-5-yl)methyl)isoindolin-1-yl)acetonitrile]
500000	C=CC(=O)N1Cc2ccc(CN3C[C@H]4CC(=O)N(c5cc(C(F)(F)F)cc(C)n5)[C@@H]4C(=O)N(C)c4cccc(Cl)c43)cc2[C@@H]1CC#N (racemic) [Example 288b, 2-((S/R)-2-acryloyl-6-(((3aR,11aS)-6-chloro-10-methyl-1-(6-methyl-4-(trifluoromethyl)pyridin-2-yl)-2,11-dioxo-1,2,3,3a,4,10,11,11a-octahydro-5H-benzo[b]pyrrolo[2,3-f][1,4]diazocin-5-yl)methyl)isoindolin-1-yl)acetonitrile]

SMILES	Kinact/Kl [M⁻¹ s⁻¹]
Cc1cc(C(F)(F)F)cc(N2C(=O)C[C@@H]3CN(Cc4ccc([C@H]5CCCN5C(=O)/C=C/CN(C)C)cc4)c4c(F)cccc4N(C)C(=O)[C@H]32)n1 (racemic) [Example 170a, (3aR,11aS)-5-(4-((R/S)-1-((E)-4-(dimethylamino)-but-2-enoyl)pyr-rolidin-2-yl)benz-yl)-6-fluoro-10-methyl-1-(6-methyl-4-(tri-fluoromethyl)-pyridin-2-yl)-1,3a,4,5,10,11a-hexahydro-2H-benzo[b]pyrrolo [2,3-f][1,4]diazo-cine-2,11(3H)-dione]	880000
